Results: US9233127B2, “Compositions and methods for CXCR4 signaling and umbilical cord blood stem cell engraftment” (University of Virginia Patent Foundation, priority 2012, dated 2016)
Entries after “also recorded” stand apart in the source; their conditions may differ.

What was measured:
UCB CD34+ cells = assay: Transwell chemotaxis of UCB CD34+ cells to SDF-1 (priming); type: cell-based, human
Method: FIG. 11A-B—Effect of SLP and its components on chemotaxis of CD34^+ cells. Panel A: Chemotaxis of BM CD34^+ cells towards medium alone (control), SDF-1 low (10 ng/mL) alone, SLP (combined SLP from three patients), SDF-1 low+SLP, and SDF-1 high (300 ng/mL). Data are pooled from quadruplicate samples from three independent experiments. *p<0.00001. Panel B: Chemotaxis of UCB CD34^+ cells to medium alone (control), SDF-1 low (10 ng/mL) alone and SDF-1 low (10 ng/mL)+uPAR (1 μg/mL) or +ICAM (1 μg/mL) or +VCAM (1 μg/mL) or +FN (2 μg/mL), or +FG (4 μg/mL) or +C3a (1 μg/mL). Data are pooled from quadruplicate samples from three independent experiments. * p<0.00001.
An increased migration of UCB-derived CD34^+ cells, as compared to BM and mPB CD34^+ cells was reported in transwell migration assays was previously reported. However, we noticed large inter-individual differences in the in vitro migratory ability of UCB CD34^+ cells, ranging from 1.1% to 14.3% for spontaneous migration and 3.1% to 62.3% for SDF-1-induced (300 ng/mL) migration. The lower migratory capacity in vitro of UCB-derived CD34^+ cells was not due to lower expression of CXCR4, but likely reflects the decreased migratory behavior of these cells. […] Based on this, we postulate that UCB HSPC responsiveness to an SDF-1 gradient varies with each collected UCB unit and that, in cases when responsiveness is low, UCB HSPCs should be identified and primed before infusion.
Moreover, as SLP contains several components that potentially could prime the responses of CD34^+ cells, (Example 2, FIG. 11, panel B) the most important being PMV and activated complement proteins such as anaphylatoxin C3a, soluble VCAM-1, soluble ICAM-1, uPAR, FG, and FN, we evaluated whether these factors could induce the chemotaxis of HSPCs when used alone. […] We also examined whether FG, FN, soluble VCAM-1, soluble ICAM-1, uPAR, and C3a prime HSPCs in their responses to SDF-1. […] To determine whether this also affects UCB CD34^+ clonogenic progenitors, UCB CD34^+ cells were collected from the lower chambers after the chemotaxis assay and plated in methylcellulose cultures. […] Moreover, a similar effect for the established hematopoietic cell lines Molt 4, Nalm-6, and THP-1 was also found (data not shown).

CXCR4 [1] = assay: FACS analysis of CXCR4 expression on BM or UCB CD34+ cells; type: cell-based, human; parameters: dose or concentration left out as unconfirmed; settings: 0, 12, and 24 hrs
Text: In another set of experiments, we attempted to elucidate the molecular mechanisms by which C3a enhances the responsiveness of hematopoietic cells to an SDF-1 gradient. […] However, we observed that actin polymerization of CD34^+ cells to a low dose of SDF-1 was enhanced in the presence of C3a.

CXCR4 [2] = assay: CXCR4 incorporation into membrane lipid rafts of UCB CD34+ HSC; type: cell-based, human; settings: short-term (15-30 min) exposure to C3a
Method: FIG. 14—Priming effect depends on inclusion of CXCR4 into membrane lipid rafts. […] comprises three rows and three columns of images of micrographs. Lipid raft formation on normal human UCB-derived CD34^+ cells not stimulated (control) or stimulated with C3a or desArgC3a. For visualization of lipid rafts, CD34^+ cells were fixed in 3.7% paraformaldehyde/Ca- and Mg-free PBS for 15 min and permeabilized by Triton X-100 in PBS for 5 min at room temperature (RT). The primary antibodies used for raft analysis are cholera toxin B-subunit conjugated with Fluorescein Isothiocyanate (FITC) (Sigma Aldrich, St. Louis, Mo.) and mouse monoclonal anti-hCXCR4 immunoglobulin (Ig)G (R&D Systems, Minneapolis, Minn.). After rinsing in phosphate-buffered saline (PBS), the sections were incubated with Alexa Fluor 568 goat anti-mouse IgG (Molecular Probes, Eugene, Oreg.) for 45 min.

Sca-1+ cells = assay: Hematopoietic recovery of lethally irradiated mice given C3a primed Sca-1+ cells; type: in vivo
Text: FIG. 6A-B—Sca-1^+ Cells Primed with C3a Engraft Faster in Lethally Irradiated Mice. 6A—left panel; 6B—right panel.

[3] = test system: UCB progenitors (human CD45 cells); assay: Long-term human engraftment of C3a primed UCB in NOD/SCID mice; type: in vivo
Method: FIG. 5A-B—Long-Term Engraftment of C3a Primed Progenitors (comprising upper and lower panels).
FIG. 54A-B—NOD.SCID engraftment comparing C3a Primed UCB vs. Control. […] 54A—control; 54B—C3a
These laboratory experiments were performed to evaluate responsiveness of UCB to SDF-1 gradient correlated with an outcome of injections in NOD/SCID mice to evaluate engraftment in vivo. In vivo studies incorporated humanized NOD.SCID/IL2rγ^null (NOG) mice were conducted to assess proportions and kinetics of human HSC homing, engraftment, comparing C3a primed UCB CD34^+ HSC vs. controls. NOD.SCID/IL2rγ^null is used in our studies as these mice lack the cytoplasmic region of the IL-2Rγ and reproducibly develop human T, myeloid, NK, and B-lymphoid cells when transplanted with cord blood CD34^+ cells. This model therefore provides a platform to analyze in vivo competitive repopulation of the full lymphopoietic system. […] More mature progenitors are considered to have exhausted after 8 weeks in this NOD.SCID model and human cells present are presumed to be derived from transplanted primitive progenitor cells. HLA staining was used to determine UCB chimerism and relative contribution of C3a primed UCB CD34^+ HSC to marrow engraftment.

UCB MNC = assay: In vitro migration assay UCB (CD34+ HSC enumerated by FACS); type: cell-based, human; settings: C3a 1 ug/ml; 3 h chemotaxis assay
Method: FIG. 52—In Vitro Migration Assay UCB. UCB MNC are loaded in the top chamber and the number of CD34^+ HSC present after the 3 h chemotaxis assay in the lower chambers from trans-wells are enumerated by FACS.

[4] = C3a primed hematopoietic progenitors

C3a: 77 amino acid residue protein derived from the human complement C3a precursor; SEQ ID NO:1
SDF-1-mediated transwell cell migration of C3a primed UCB CD34+ HSC (UCB CD34+ cells): enhanced | responsiveness of UCB cells to SDF-1 gradient (UCB CD34+ cells; UCB-derived CD34+ cells exposed/primed): significantly increase the responsiveness | chemotactic response of UCB CD34+ cells to SDF-1 (UCB CD34+ cells; added to lower chambers with SDF-1 10 ng/mL, uPAR, ICAM, VCAM, C3a 1 μg/mL, FN 2 μg/mL, FG 4 μg/mL): increased the chemotactic response | induction of chemotaxis of HSPCs when used alone (UCB CD34+ cells; without SDF-1): no evidence that they did | CXCR4 expression after C3a exposure (CXCR4 [1]): not enhanced; also recorded: negative results | CXCR4 incorporation into membrane lipid rafts (CXCR4 [2]): enhances CXCR4 incorporation | faster rate of leukocyte recovery relative to untreated mice (Sca-1+ cells; [4]): 5 days | platelet counts (Sca-1+ cells; [4]): benefit in platelet counts | infusional toxicity and coagulopathy (Sca-1+ cells; murine studies): neither infusional toxicity nor evidence of coagulopathy was observed | human CD45 cells detected by FACS in marrow ([3]; NOD.SCID at 8 weeks after injection, vs control): significantly higher | long-term human engraftment, flow cytometry for human anti-CD45 ([3]; NOD/SCID mice harvest after 12 weeks, vs unprimed cells): exhibit long-term human engraftment | rates of UCB chemotaxis in vitro (UCB MNC): significantly higher rates
